Laboratory results taken from US20050227337A1, “Method for producing ascorbic acid intermediates” (priority 1998, published 2005).

Experiments:
[1] = system: reductase and glucose dehydrogenase (GDH); assay: NADPH/NADP+ ratio in cofactor recycling reaction (absorbance at 340 nm); assay type: biochemical; conditions: final concentration 0.5 M NaCl; room temperature, pH 7
Experimental: Therefore, if the two cofactors are mixed together, the amount of NADPH present can be determined by the absorbance at 340 nm. If the amount of NADP+ originally added is also known, the ratio of the two cofactors can then be easily determined. This method can be used to measure how the addition of various components to a reaction, such as a cofactor recycling reaction, affects the reaction equilibrium.
A 1 ml reaction was set up in a cuvette at room temperature. The reaction consisted of buffer (50 mM bis-tris, pH 7), 5 mg glucose, 5 mg 2,5-DKG, 100 uM NADPH, 100 uM NADP+, reductase and glucose dehydrogenase (GDH). The enzymes were added last to initiate the reaction, and the cofactor levels were monitored at 340 nm. After equilibrium was reached (FIG. 7), an additional aliquot of GDH was added. Very quickly the equilibrium shifted to favor more NADPH being present. Addition of more GDH gave the same response.
Another 1 ml incubation was set up as above. After it reached equilibrium, 29 mg of NaCl was added to it to give a final concentration of 0.5 M NaCl.

[2] = system: 2-keto-D-gluconate dehydrogenase; conditions: reported by Shinagawa and Ameyama (1982); cited from earlier work
[3] = system: D-gluconic acid dehydrogenase; assay: D-gluconic acid dehydrogenase activity in permeabilized cells with methanol (product formation, HPLC); assay type: biochemical, P. citrea; conditions: permeabilized cells with 15% MeOH and gluconic acid
Experimental: (§1) 400 ml of P. citrea cells having a mutation in the naturally occurring membrane bound GDH was grown to 80 OD (600 nm) in 10 g/L gluconate, and mixed with 16 ml of a mixture of 10% toluene and 90% acetone for 3 minutes at 22 C. The permeabilized cells were then centrifuged for 10 minutes at 9000 rpm, and the resulting cell pellet was washed with 400 ml of 50 mM tris, pH 7. The washings were repeated twice more to ensure removal of residual organic solvent.
(§2) Permeabilized cells were incubated with 15% MeOH and gluconic acid.

GDH from T. acidophilum = molecular target: T1, GDH from T. acidophilum (Thermoplasma acidophilum, UniProt P13203); assay: GDH activity in the presence of methanol; assay type: biochemical; conditions: incubated with 10% methanol; 50 mM Tris, pH 7
T1 construct: purchased Sigma
T1 sequence (P13203 1-361): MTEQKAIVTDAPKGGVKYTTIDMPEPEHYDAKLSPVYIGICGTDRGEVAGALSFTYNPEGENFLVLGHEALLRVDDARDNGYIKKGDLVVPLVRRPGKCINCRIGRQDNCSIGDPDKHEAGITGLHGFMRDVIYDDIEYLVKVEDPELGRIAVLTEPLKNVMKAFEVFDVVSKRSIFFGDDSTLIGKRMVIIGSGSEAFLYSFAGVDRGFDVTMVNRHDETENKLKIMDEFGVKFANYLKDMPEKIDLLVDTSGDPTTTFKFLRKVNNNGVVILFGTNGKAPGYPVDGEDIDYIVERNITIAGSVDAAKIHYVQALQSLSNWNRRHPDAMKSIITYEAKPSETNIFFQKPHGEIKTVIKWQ

[4] = system: 2-keto-D-gluconic acid dehydrogenase; assay: 2-keto-D-gluconic acid dehydrogenase activity in permeabilized cells with methanol (product formation, HPLC); assay type: biochemical, P. citrea; conditions: permeabilized cells with 15% MeOH and gluconic acid
Experimental: as §1, §2

Structure (SMILES): [Cl-].[Na+] [NaCl, sodium chloride]
- shift of NADPH/NADP+ equilibrium [1]: dramatically shifted the equilibrium to favor the presence of NADPH

Structure (SMILES): O=C(O)CC(O)(CC(=O)O)C(=O)O [citrate]
- effect on 2-keto-D-gluconate dehydrogenase [2]: inhibit

Structure (SMILES): CO [methanol]
- activity of D-gluconic acid dehydrogenase [3]: not significantly affected
- GDH activity (GDH from T. acidophilum): small decrease in activity
- activity of 2-keto-D-gluconic acid dehydrogenase [4]: not significantly affected

Structure (SMILES): O=C(O)CCC(=O)O [succinate]
- effect on 2-keto-D-gluconate dehydrogenase [2]: inhibit
